Assay results reported in ChEMBL document CHEMBL5303573, “Mapping human microbiome drug metabolism by gut bacteria and their genes” (Nature, 2019).

Tests used:
[1] = The drug is tested on Ruminococcus lactaris strain: ATCC29176 for biotransformation. The drug concentrations were measured before and after a 12-h incubation by liquid-chromatography-coupled mass spectrometry (LC–MS); settings: 2 µM
[2] = The drug is tested on Clostridium ramosum strain: DSM1402 for biotransformation. The drug concentrations were measured before and after a 12-h incubation by liquid-chromatography-coupled mass spectrometry (LC–MS); settings: thomasclavelia ramosa, 2 µM
[3] = parabacteroides johnsonii, 12 h, 2 µM
Description: The drug is tested on Parabacteroides johnsonii strain: DSM18315 for biotransformation. The drug concentrations were measured before and after a 12-h incubation by liquid-chromatography-coupled mass spectrometry (LC–MS)

[4] = The drug is tested on Ruminococcus gnavus strain: ATCC29149 for biotransformation. The drug concentrations were measured before and after a 12-h incubation by liquid-chromatography-coupled mass spectrometry (LC–MS); settings: mediterraneibacter gnavus, 2 µM
[5] = bacteroides thetaiotaomicron, 12 h, 2 µM
Description: The drug is tested on Bacteroides thetaiotaomicron strain: 3731 for biotransformation. The drug concentrations were measured before and after a 12-h incubation by liquid-chromatography-coupled mass spectrometry (LC–MS)

[6] = The drug is tested on Collinsella aerofaciens strain: ATCC25986 for biotransformation. The drug concentrations were measured before and after a 12-h incubation by liquid-chromatography-coupled mass spectrometry (LC–MS); settings: 2 µM
[7] = The drug is tested on Eubacterium hallii strain: DSM3353 for biotransformation. The drug concentrations were measured before and after a 12-h incubation by liquid-chromatography-coupled mass spectrometry (LC–MS); settings: anaerobutyricum hallii, 2 µM
[8] = bacteroides fragilis, 12 h, 2 µM
Description: The drug is tested on Bacteroides fragilis strain: NCTC 9343 for biotransformation. The drug concentrations were measured before and after a 12-h incubation by liquid-chromatography-coupled mass spectrometry (LC–MS)

[9] = The drug is tested on Eubacterium ventriosum strain: ATCC27560 for biotransformation. The drug concentrations were measured before and after a 12-h incubation by liquid-chromatography-coupled mass spectrometry (LC–MS); type: ADME; set-up: dose 2 uM, timepoint 0 vs 12 hours; settings: 2 µM
[10] = enterocloster bolteae, 12 h, 2 µM
Description: The drug is tested on Clostridium bolteae strain: ATCCBAA-613 for biotransformation. The drug concentrations were measured before and after a 12-h incubation by liquid-chromatography-coupled mass spectrometry (LC–MS)

[11] = The drug is tested on Providencia stuartii strain: ATCC25827 for biotransformation. The drug concentrations were measured before and after a 12-h incubation by liquid-chromatography-coupled mass spectrometry (LC–MS); settings: 2 µM
[12] = The drug is tested on Enterococcus faecalis strain: V583 for biotransformation. The drug concentrations were measured before and after a 12-h incubation by liquid-chromatography-coupled mass spectrometry (LC–MS); settings: 2 µM
[13] = The drug is tested on Bacteroides coprophilus strain: DSM18228 for biotransformation. The drug concentrations were measured before and after a 12-h incubation by liquid-chromatography-coupled mass spectrometry (LC–MS); settings: 2 µM
[14] = The drug is tested on Clostridium sporogenes strain: ATCC15579 for biotransformation. The drug concentrations were measured before and after a 12-h incubation by liquid-chromatography-coupled mass spectrometry (LC–MS); settings: 2 µM
[15] = The drug is tested on Escherichia coli strain: BW25113 for biotransformation. The drug concentrations were measured before and after a 12-h incubation by liquid-chromatography-coupled mass spectrometry (LC–MS); settings: 2 µM
[16] = The drug is tested on Alistipes indistinctus strain: DSM22520 for biotransformation. The drug concentrations were measured before and after a 12-h incubation by liquid-chromatography-coupled mass spectrometry (LC–MS); settings: 2 µM
[17] = The drug is tested on Bacteroides fragilis strain: ATCC43859 for biotransformation. The drug concentrations were measured before and after a 12-h incubation by liquid-chromatography-coupled mass spectrometry (LC–MS); settings: 2 µM
[18] = The drug is tested on Clostridium scindens strain: ATCC35704 for biotransformation. The drug concentrations were measured before and after a 12-h incubation by liquid-chromatography-coupled mass spectrometry (LC–MS); settings: 2 µM
[19] = bifidobacterium adolescentis, 12 h, 2 µM
Description: The drug is tested on Bifidobacterium adolescentis strain: ATCC 15703 for biotransformation. The drug concentrations were measured before and after a 12-h incubation by liquid-chromatography-coupled mass spectrometry (LC–MS)

[20] = The drug is tested on Parabacteroides merdae strain: ATCC43184 for biotransformation. The drug concentrations were measured before and after a 12-h incubation by liquid-chromatography-coupled mass spectrometry (LC–MS); settings: 2 µM

In the case of CN1CCN(C(=O)O[C@H]2c3nccnc3C(=O)N2c2ccc(Cl)cn2)CC1 [ESZOPICLONE], the “Bacterial Biotransformation” value [1] is reported as “Compound NOT metabolized”, the “Bacterial Biotransformation” value [2] is reported as “Compound NOT metabolized” and the “Bacterial Biotransformation” value [3] is reported as “Compound metabolized”. For the same compound, the “Bacterial Biotransformation” value [4] was “Compound NOT metabolized”, the “Bacterial Biotransformation” value [5] was “Compound NOT metabolized” and the “Bacterial Biotransformation” value [6] was “Compound metabolized”. For the same compound, the “Bacterial Biotransformation” value [7] was “Compound metabolized”, the “Bacterial Biotransformation” value [8] was “Compound NOT metabolized” and the “Bacterial Biotransformation” value [9] was “Compound NOT metabolized”. The “Bacterial Biotransformation” value [10] was “Compound metabolized”, the “Bacterial Biotransformation” value [11] was “Compound NOT metabolized” and the “Bacterial Biotransformation” value [12] was “Compound NOT metabolized”. The “Bacterial Biotransformation” value [13] was “Compound NOT metabolized”, the “Bacterial Biotransformation” value [14] was “Compound NOT metabolized” and the “Bacterial Biotransformation” value [15] was “Compound NOT metabolized”. For the same compound, the “Bacterial Biotransformation” value [16] was “Compound NOT metabolized”, the “Bacterial Biotransformation” value [17] was “Compound NOT metabolized” and the “Bacterial Biotransformation” value [18] was “Compound NOT metabolized”.

In the case of CC(=O)O[C@]1(C(C)=O)CC[C@H]2[C@@H]3C=C(Cl)C4=CC(=O)[C@@H]5C[C@@H]5[C@]4(C)[C@H]3CC[C@@]21C [CYPROTERONE ACETATE], the “Bacterial Biotransformation” value [1] is reported as “Compound NOT metabolized”, the “Bacterial Biotransformation” value [2] is reported as “Compound NOT metabolized” and the “Bacterial Biotransformation” value [3] is reported as “Compound metabolized”. For the same compound, the “Bacterial Biotransformation” value [4] was “Compound NOT metabolized”, the “Bacterial Biotransformation” value [19] was “Compound NOT metabolized” and the “Bacterial Biotransformation” value [5] was “Compound metabolized”. The “Bacterial Biotransformation” value [6] was “Compound metabolized”, the “Bacterial Biotransformation” value [20] was “Compound NOT metabolized” and the “Bacterial Biotransformation” value [7] was “Compound NOT metabolized”. For the same compound, the “Bacterial Biotransformation” value [8] was “Compound metabolized”, the “Bacterial Biotransformation” value [9] was “Compound NOT metabolized” and the “Bacterial Biotransformation” value [10] was “Compound NOT metabolized”. The “Bacterial Biotransformation” value [12] was “Compound NOT metabolized”, the “Bacterial Biotransformation” value [13] was “Compound metabolized” and the “Bacterial Biotransformation” value [14] was “Compound metabolized”. For the same compound, the “Bacterial Biotransformation” value [15] was “Compound metabolized”, the “Bacterial Biotransformation” value [16] was “Compound NOT metabolized” and the “Bacterial Biotransformation” value [17] was “Compound metabolized”. The “Bacterial Biotransformation” value [18] was “Compound metabolized”.

With C#C[C@]1(OC(C)=O)CC[C@H]2[C@@H]3CCC4=CC(=O)CC[C@@H]4[C@H]3CC[C@@]21C [NORETHINDRONE ACETATE] the “Bacterial Biotransformation” value [2] was “Compound NOT metabolized”, the “Bacterial Biotransformation” value [3] was “Compound metabolized” and the “Bacterial Biotransformation” value [4] was “Compound metabolized”. For the same compound, the “Bacterial Biotransformation” value [19] was “Compound NOT metabolized”, the “Bacterial Biotransformation” value [5] was “Compound metabolized” and the “Bacterial Biotransformation” value [6] was “Compound metabolized”. The “Bacterial Biotransformation” value [20] was “Compound metabolized”, the “Bacterial Biotransformation” value [7] was “Compound metabolized” and the “Bacterial Biotransformation” value [8] was “Compound metabolized”. For the same compound, the “Bacterial Biotransformation” value [9] was “Compound metabolized”, the “Bacterial Biotransformation” value [10] was “Compound metabolized” and the “Bacterial Biotransformation” value [12] was “Compound NOT metabolized”. For the same compound, the “Bacterial Biotransformation” value [13] was “Compound metabolized”, the “Bacterial Biotransformation” value [14] was “Compound metabolized” and the “Bacterial Biotransformation” value [15] was “Compound metabolized”. The “Bacterial Biotransformation” value [16] was “Compound metabolized”, the “Bacterial Biotransformation” value [17] was “Compound metabolized” and the “Bacterial Biotransformation” value [18] was “Compound NOT metabolized”.

For CN1C(=O)CC(C)(c2ccccc2)C1=O (centres undefined) [METHSUXIMIDE], the “Bacterial Biotransformation” value [2] was “Compound NOT metabolized”, the “Bacterial Biotransformation” value [3] was “Compound NOT metabolized” and the “Bacterial Biotransformation” value [4] was “Compound NOT metabolized”. For the same compound, the “Bacterial Biotransformation” value [19] was “Compound NOT metabolized”, the “Bacterial Biotransformation” value [5] was “Compound NOT metabolized” and the “Bacterial Biotransformation” value [6] was “Compound NOT metabolized”. The “Bacterial Biotransformation” value [20] was “Compound NOT metabolized”, the “Bacterial Biotransformation” value [7] was “Compound NOT metabolized” and the “Bacterial Biotransformation” value [8] was “Compound NOT metabolized”. For the same compound, the “Bacterial Biotransformation” value [9] was “Compound NOT metabolized”, the “Bacterial Biotransformation” value [10] was “Compound NOT metabolized” and the “Bacterial Biotransformation” value [12] was “Compound NOT metabolized”. The “Bacterial Biotransformation” value [13] was “Compound NOT metabolized”, the “Bacterial Biotransformation” value [14] was “Compound NOT metabolized” and the “Bacterial Biotransformation” value [15] was “Compound metabolized”. For the same compound, the “Bacterial Biotransformation” value [16] was “Compound NOT metabolized”, the “Bacterial Biotransformation” value [17] was “Compound NOT metabolized” and the “Bacterial Biotransformation” value [18] was “Compound NOT metabolized”.

In the case of O=c1[nH]c2ccccc2n1CCCN1CCC(n2c(=O)[nH]c3cc(Cl)ccc32)CC1 [DOMPERIDONE], the “Bacterial Biotransformation” value [1] is reported as “Compound NOT metabolized”, the “Bacterial Biotransformation” value [2] is reported as “Compound NOT metabolized” and the “Bacterial Biotransformation” value [3] is reported as “Compound NOT metabolized”. The “Bacterial Biotransformation” value [4] was “Compound NOT metabolized”, the “Bacterial Biotransformation” value [19] was “Compound NOT metabolized” and the “Bacterial Biotransformation” value [5] was “Compound NOT metabolized”. The “Bacterial Biotransformation” value [6] was “Compound NOT metabolized”, the “Bacterial Biotransformation” value [20] was “Compound NOT metabolized” and the “Bacterial Biotransformation” value [7] was “Compound NOT metabolized”. The “Bacterial Biotransformation” value [8] was “Compound NOT metabolized”, the “Bacterial Biotransformation” value [9] was “Compound NOT metabolized” and the “Bacterial Biotransformation” value [10] was “Compound NOT metabolized”. For the same compound, the “Bacterial Biotransformation” value [12] was “Compound NOT metabolized”, the “Bacterial Biotransformation” value [13] was “Compound NOT metabolized” and the “Bacterial Biotransformation” value [14] was “Compound NOT metabolized”. For the same compound, the “Bacterial Biotransformation” value [15] was “Compound NOT metabolized”, the “Bacterial Biotransformation” value [16] was “Compound NOT metabolized” and the “Bacterial Biotransformation” value [17] was “Compound NOT metabolized”.

In the case of CN(C)CCOC(C)(c1ccccc1)c1ccccn1.O=C(O)CCC(=O)O (centres undefined) [DOXYLAMINE SUCCINATE], the “Bacterial Biotransformation” value [1] is reported as “Compound NOT metabolized”, the “Bacterial Biotransformation” value [2] is reported as “Compound NOT metabolized” and the “Bacterial Biotransformation” value [4] is reported as “Compound NOT metabolized”. The “Bacterial Biotransformation” value [19] was “Compound NOT metabolized”, the “Bacterial Biotransformation” value [5] was “Compound NOT metabolized” and the “Bacterial Biotransformation” value [6] was “Compound NOT metabolized”. The “Bacterial Biotransformation” value [20] was “Compound NOT metabolized”, the “Bacterial Biotransformation” value [7] was “Compound NOT metabolized” and the “Bacterial Biotransformation” value [8] was “Compound NOT metabolized”. The “Bacterial Biotransformation” value [9] was “Compound NOT metabolized”, the “Bacterial Biotransformation” value [10] was “Compound NOT metabolized” and the “Bacterial Biotransformation” value [11] was “Compound NOT metabolized”. For the same compound, the “Bacterial Biotransformation” value [12] was “Compound NOT metabolized”, the “Bacterial Biotransformation” value [13] was “Compound NOT metabolized” and the “Bacterial Biotransformation” value [14] was “Compound NOT metabolized”. The “Bacterial Biotransformation” value [15] was “Compound NOT metabolized”, the “Bacterial Biotransformation” value [16] was “Compound NOT metabolized” and the “Bacterial Biotransformation” value [17] was “Compound NOT metabolized”. For the same compound, the “Bacterial Biotransformation” value [18] was “Compound NOT metabolized”.

In the case of OCCN1CCN(CCCN2c3ccccc3Sc3ccc(C(F)(F)F)cc32)CC1 [FLUPHENAZINE], the “Bacterial Biotransformation” value [1] is reported as “Compound NOT metabolized”, the “Bacterial Biotransformation” value [2] is reported as “Compound metabolized” and the “Bacterial Biotransformation” value [3] is reported as “Compound metabolized”. The “Bacterial Biotransformation” value [4] was “Compound NOT metabolized”, the “Bacterial Biotransformation” value [19] was “Compound NOT metabolized” and the “Bacterial Biotransformation” value [5] was “Compound metabolized”. The “Bacterial Biotransformation” value [6] was “Compound NOT metabolized”, the “Bacterial Biotransformation” value [20] was “Compound NOT metabolized” and the “Bacterial Biotransformation” value [7] was “Compound metabolized”. The “Bacterial Biotransformation” value [8] was “Compound metabolized”, the “Bacterial Biotransformation” value [9] was “Compound metabolized” and the “Bacterial Biotransformation” value [10] was “Compound NOT metabolized”. For the same compound, the “Bacterial Biotransformation” value [12] was “Compound NOT metabolized”, the “Bacterial Biotransformation” value [13] was “Compound NOT metabolized” and the “Bacterial Biotransformation” value [14] was “Compound NOT metabolized”. For the same compound, the “Bacterial Biotransformation” value [15] was “Compound metabolized”, the “Bacterial Biotransformation” value [16] was “Compound NOT metabolized” and the “Bacterial Biotransformation” value [17] was “Compound NOT metabolized”. The “Bacterial Biotransformation” value [18] was “Compound NOT metabolized”.
